{
  "source": "patent US20080241281A1",
  "about": "“Compositions & methods for activation and inhibition of Staphylococcus aureus biofilm development” (priority 2007, published 2008)",
  "key": {"[1]": {"test_system": "S. aureus (NCTC-8325-4) biofilm", "test": "S. aureus biofilm assay (microtiter wells, crystal violet stain, OD590)", "format": "cell-based, Staphylococcus aureus", "protocol": "In the S. aureus biofilm assay, polystyrene microtiter wells and glass tubes well known in the art were used to develop biofilm in vitro. Fractions dissolved in water were added to a sterile tryptic soy broth (TSB, Difco, Detroit) medium at a final concentration between 0.001-0.01% (w/v). Biofilm was developed and measured according to methods well known in the art. Briefly, a single colony of S. aureus (NCTC-8325-4) (or a clinical isolate) grown on blood agar plate was inoculated into the TSB liquid medium and grown in a shaking water bath at 37° C. until it reached an optical density (OD600) of 0.6-0.8. An aliquot was further diluted in TSB to an OD of 0.05 and 0.1 ml was dispensed into sterile microtiter wells. Solubilized SSF were added to the wells (1 μl/ml from 0.1% of filter sterile stock in water). Cells without SSF served as a control. The microtiter plate was incubated at 37° C. with gentle shaking for up to 16 hours.\n(§1) At different time points, cells were collected and assayed for biofilm growth. Unbound cells were aspirated and saved for measuring the growth at OD600 and cell viability on agar plates. Loosely bound cells were removed by washing with phosphate buffer saline (PBS) twice and adherent biofilm cells were stained with 1% crystal violet (CV) stain. After extensive washing, stained cells were air dried, solubilized in dimethylsulfoxide (DMSO) and lysates (100 μl) were measured by a plate reader at OD590."}, "S. aureus": {"test_system": "S. aureus", "test": "S. aureus growth (OD600) and cell viability on agar plates", "format": "cell-based, Staphylococcus aureus", "conditions": "growth in TSB with or without substance", "protocol": "as §1"}, "[2]": {"test_system": "poly N-acetylglucosamine (PNAG)", "test": "PNAG western blot of S. aureus biofilm cells (anti-PNAG rabbit polyclonal antibody)", "format": "cell-based, Staphylococcus aureus", "conditions": "for PNAG synthesis in the presence of activator: LBBI-1 and LBBA-1 incubated together during biofilm growth"}, "[3]": {"test_system": "several cell lines (human)"}, "rat chorda tympani nerve": {"test_system": "rat chorda tympani nerve", "conditions": "glucose, sucrose, glycine and saccharine; known in the art; cited from earlier work"}, "sweet taste": {"test_system": "sweet taste", "conditions": "cited from earlier work"}},
  "data": [
    {"substance": "gurmarin [LBBI-1]", "values": [
      {"measurement": "biofilm inhibitory property", "setting": "[1]; 2 μg/ml concentration, microtiter biofilm assay", "result": "confirmed"},
      {"measurement": "S. aureus biofilm growth", "setting": "[1]; FIG. 3B", "result": "prevents S. aureus biofilm growth"},
      {"measurement": "biofilm production in the presence of LBBA-1", "setting": "[1]; in the presence of LBBA-1", "result": "can inhibit biofilm production"},
      {"measurement": "S. aureus cell growth and viability", "setting": "S. aureus", "result": "did not affect the growth of S. aureus"},
      {"measurement": "PNAG synthesis in the presence of activator", "setting": "[2]", "result": "almost abolished"},
      {"measurement": "PNAG synthesis in the presence of activator", "setting": "[2]; listed as biofilm inhibitor", "result": "suppresses the production of PNAG"},
      {"measurement": "PNAG production", "setting": "[2]; western blot, S. aureus biofilm", "result": "significantly less PNAG production"},
      {"measurement": "toxicity to cell lines", "setting": "[3]", "result": "non-toxic"},
      {"measurement": "response of the rat chorda tympani nerve to sweet-taste stimuli", "setting": "rat chorda tympani nerve", "result": "suppress the response"},
      {"measurement": "sweet taste suppression in humans", "setting": "sweet taste", "result": "no apparent effect"}
    ]}
  ]
}
